# What was measured:
# Test in all cases: Test F pre-/postemergence plant response
# Type in all cases: in vivo
# Details in all cases: scale 0 to 100
# [1] = tested on: Brazilian crabgrass (Digitaria horizontalis)
# Method in brief: (§1)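 Plant response is a visual score from 0, meaning no effect, to 100, meaning complete control, assigned by comparison with untreated plants. Ratings were made 14 to 21 days after preemergence application to seeded silt loam or postemergence application to plants at the 1- to 4-leaf stage.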
# [2] = tested on: green foxtail (Setaria viridis)
# Method in brief: as §1
# [3] = tested on: morningglory (Ipomoea coccinea)
# Method in brief: as §1
# [4] = tested on: ragweed (common ragweed, Ambrosia elatior)
# Method in brief: as §1
# [5] = tested on: corn (Zea mays)
# Method in brief: as §1
# [6] = tested on: fall panicum (Panicum dichotomiflorum)
# Method in brief: as §1
# [7] = tested on: lambsquarters (Chenopodium album)
# Method in brief: as §1
compound,measurement,setting,value
"Fc1cccc(Oc2ncc(Cl)cn2)c1-c1cc(C(F)(F)F)on1 [Compound 168, 5-chloro-2-[2-[5-(trifluoromethyl)-3-isoxazolyl]-3-fluorophenoxy]pyrimidine]",pest or weed control at 16 g/ha,"[1]; Digitaria horizontalis, pre-emergence, 16 g ai/ha Preemergence, read-out: Plant response rating, Crabgrass, Brazil",65%
same,pest or weed control at 31 g/ha,"[1]; Digitaria horizontalis, pre-emergence, 31 g ai/ha Preemergence, read-out: Plant response rating, Crabgrass, Brazil",100%
same,pest or weed control at 62 g/ha,"[1]; Digitaria horizontalis, pre-emergence, 62 g ai/ha Preemergence, read-out: Plant response rating, Crabgrass, Brazil",100%
same,pest or weed control at 125 g/ha,"[1]; Digitaria horizontalis, pre-emergence, 125 g ai/ha Preemergence, read-out: Plant response rating, Crabgrass, Brazil",100%
same,pest or weed control at 16 g/ha,"[2]; Setaria viridis, pre-emergence, 16 g ai/ha, Preemergence, read-out: Plant response rating, Foxtail, Green",70%
same,pest or weed control at 31 g/ha,"[2]; Setaria viridis, pre-emergence, 31 g ai/ha, Preemergence, read-out: Plant response rating, Foxtail, Green",100%
same,pest or weed control at 125 g/ha,"[2]; Setaria viridis, pre-emergence, 125 g ai/ha, Preemergence, read-out: Plant response rating, Foxtail, Green",100%
same,pest or weed control at 62 g/ha,"[2]; Setaria viridis, pre-emergence, Preemergence, read-out: Plant response rating, Foxtail, Green",100%
same,pest or weed control at 16 g/ha,"[3]; Ipomoea, pre-emergence, 16 g ai/ha Preemergence, read-out: Plant response rating, Morningglory",0%
same,pest or weed control at 31 g/ha,"[3]; Ipomoea, pre-emergence, 31 g ai/ha Preemergence, read-out: Plant response rating, Morningglory",0%
same,pest or weed control at 125 g/ha,"[3]; Ipomoea, pre-emergence, 125 g ai/ha Preemergence, read-out: Plant response rating, Morningglory",75%
same,pest or weed control at 62 g/ha,"[3]; Ipomoea, pre-emergence, Preemergence, read-out: Plant response rating, Morningglory",15%
same,pest or weed control at 16 g/ha,"[4]; Ambrosia artemisiifolia, pre-emergence, 16 g ai/ha Preemergence, read-out: Plant response rating, Ragweed",10%
same,pest or weed control at 31 g/ha,"[4]; Ambrosia artemisiifolia, pre-emergence, 31 g ai/ha Preemergence, read-out: Plant response rating, Ragweed",35%
same,pest or weed control at 125 g/ha,"[4]; Ambrosia artemisiifolia, pre-emergence, 125 g ai/ha Preemergence, read-out: Plant response rating, Ragweed",98%
same,pest or weed control at 62 g/ha,"[4]; Ambrosia artemisiifolia, pre-emergence, Preemergence, read-out: Plant response rating, Ragweed",65%
same,"Corn plant response rating (crop injury, 0 = no effect, 100 = complete kill) at 16 g/ha","[5]; Zea mays, pre-emergence, 16 g ai/ha Preemergence",0%
same,"Corn plant response rating (crop injury, 0 = no effect, 100 = complete kill) at 31 g/ha","[5]; Zea mays, pre-emergence, 31 g ai/ha Preemergence",0%
same,"Corn plant response rating (crop injury, 0 = no effect, 100 = complete kill) at 62 g/ha","[5]; Zea mays, pre-emergence, 62 g ai/ha Preemergence",40%
same,"Corn plant response rating (crop injury, 0 = no effect, 100 = complete kill) at 125 g/ha","[5]; Zea mays, pre-emergence, 125 g ai/ha Preemergence",35%
same,pest or weed control at 16 g/ha,"[6]; Panicum dichotomiflorum, pre-emergence, 16 g ai/ha Preemergence, read-out: Plant response rating, Panicum, Fall",35%
same,pest or weed control at 31 g/ha,"[6]; Panicum dichotomiflorum, pre-emergence, 31 g ai/ha Preemergence, read-out: Plant response rating, Panicum, Fall",95%
same,pest or weed control at 125 g/ha,"[6]; Panicum dichotomiflorum, pre-emergence, 125 g ai/ha Preemergence, read-out: Plant response rating, Panicum, Fall",100%
same,pest or weed control at 62 g/ha,"[6]; Panicum dichotomiflorum, pre-emergence, Preemergence, read-out: Plant response rating, Panicum, Fall",100%
same,pest or weed control at 16 g/ha,"[7]; Chenopodium album, pre-emergence, 16 g ai/ha, Preemergence, read-out: Plant response rating, Lambsquarters",100%
same,pest or weed control at 31 g/ha,"[7]; Chenopodium album, pre-emergence, 31 g ai/ha, Preemergence, read-out: Plant response rating, Lambsquarters",100%
same,pest or weed control at 125 g/ha,"[7]; Chenopodium album, pre-emergence, 125 g ai/ha, Preemergence, read-out: Plant response rating, Lambsquarters",100%
same,pest or weed control at 62 g/ha,"[7]; Chenopodium album, pre-emergence, Preemergence, read-out: Plant response rating, Lambsquarters",100%
FC(F)c1cc(-c2c(Cl)cccc2Oc2ncc(Cl)cn2)no1 [Compound 179],"Plant response rating, Crabgrass, Brazil",[1]; 16 g ai/ha Postemergence,10
same,"Plant response rating, Crabgrass, Brazil",[1]; 16 g ai/ha Preemergence,0
same,"Plant response rating, Crabgrass, Brazil",[1]; 31 g ai/ha Postemergence,20
same,"Plant response rating, Crabgrass, Brazil",[1]; 31 g ai/ha Preemergence,0
same,"Plant response rating, Crabgrass, Brazil",[1]; 62 g ai/ha Postemergence,20
same,"Plant response rating, Crabgrass, Brazil",[1]; 62 g ai/ha Preemergence,15
same,"Plant response rating, Crabgrass, Brazil",[1]; 125 g ai/ha Postemergence,30
same,"Plant response rating, Crabgrass, Brazil",[1]; 125 g ai/ha Preemergence,25
same,"Plant response rating, Foxtail, Green",[2]; 16 g ai/ha Preemergence,0
same,"Plant response rating, Foxtail, Green",[2]; 31 g ai/ha Preemergence,0
same,"Plant response rating, Foxtail, Green",[2]; 125 g ai/ha Preemergence,15
same,"Plant response rating, Foxtail, Green",[2]; Preemergence,0
same,"Plant response rating, Morningglory",[3]; 16 g ai/ha Preemergence,0
same,"Plant response rating, Morningglory",[3]; 31 g ai/ha Preemergence,0
same,"Plant response rating, Morningglory",[3]; 125 g ai/ha Preemergence,25
same,"Plant response rating, Morningglory",[3]; Preemergence,35
same,"Plant response rating, Ragweed",[4]; 16 g ai/ha Postemergence,45
same,"Plant response rating, Ragweed",[4]; 16 g ai/ha Preemergence,0
same,"Plant response rating, Ragweed",[4]; 31 g ai/ha Postemergence,40
same,"Plant response rating, Ragweed",[4]; 31 g ai/ha Preemergence,0
same,"Plant response rating, Ragweed",[4]; 62 g ai/ha Postemergence,40
same,"Plant response rating, Ragweed",[4]; 125 g ai/ha Postemergence,50
same,"Plant response rating, Ragweed",[4]; 125 g ai/ha Preemergence,0
same,"Plant response rating, Ragweed",[4]; Preemergence,0
same,"Plant response rating, Corn",[5]; 16 g ai/ha Postemergence,5
same,"Plant response rating, Corn",[5]; 16 g ai/ha Preemergence,0
same,"Plant response rating, Corn",[5]; 31 g ai/ha Postemergence,0
same,"Plant response rating, Corn",[5]; 31 g ai/ha Preemergence,0
same,"Plant response rating, Corn",[5]; 62 g ai/ha Postemergence,10
same,"Plant response rating, Corn",[5]; 62 g ai/ha Preemergence,0
same,"Plant response rating, Corn",[5]; 125 g ai/ha Postemergence,15
same,"Plant response rating, Corn",[5]; 125 g ai/ha Preemergence,40
same,"Plant response rating, Panicum, Fall",[6]; 16 g ai/ha Postemergence,15
same,"Plant response rating, Panicum, Fall",[6]; 16 g ai/ha Preemergence,0
same,"Plant response rating, Panicum, Fall",[6]; 31 g ai/ha Postemergence,10
same,"Plant response rating, Panicum, Fall",[6]; 31 g ai/ha Preemergence,0
same,"Plant response rating, Panicum, Fall",[6]; 62 g ai/ha Postemergence,15
same,"Plant response rating, Panicum, Fall",[6]; 125 g ai/ha Postemergence,10
same,"Plant response rating, Panicum, Fall",[6]; 125 g ai/ha Preemergence,75
same,"Plant response rating, Panicum, Fall",[6]; Preemergence,50
same,"Plant response rating, Lambsquarters",[7]; 16 g ai/ha Preemergence,98
same,"Plant response rating, Lambsquarters",[7]; 31 g ai/ha Preemergence,100
same,"Plant response rating, Lambsquarters",[7]; 125 g ai/ha Preemergence,100
same,"Plant response rating, Lambsquarters",[7]; Preemergence,100

# — patent US10131652B2, “Pyrimidinyloxy benzene derivatives as herbicides” (E. I. DU PONT DE NEMOURS AND COMPANY, priority 2014, dated 2018)
